Results published in US20130165426A1, “IMIDAZOPYRIDINE, IMIDAZOPYRIMIDINE AND IMIDAZOPYRAZINE DERIVATIVES AS MELANOCORTIN-4 RECEPTOR MODULATORS” (UNIVERSITÉ DE MONTRÉAL, priority 2010, published 2013).

biological target: T1, wild-type human melanocortin 4 receptor (WT-hMC4R) (Homo sapiens, UniProt P32245); assay: Cyclic AMP assay (HTRF), antagonist competition against NDP-α-MSH; format: cell-based; conditions: HEK293T cells stably expressing WT-hMC4R; inhibition of response to 4 nM NDP-α-MSH; cAMP
T1 construct: expressed in transfected cells
T1 sequence (P32245 whole entry): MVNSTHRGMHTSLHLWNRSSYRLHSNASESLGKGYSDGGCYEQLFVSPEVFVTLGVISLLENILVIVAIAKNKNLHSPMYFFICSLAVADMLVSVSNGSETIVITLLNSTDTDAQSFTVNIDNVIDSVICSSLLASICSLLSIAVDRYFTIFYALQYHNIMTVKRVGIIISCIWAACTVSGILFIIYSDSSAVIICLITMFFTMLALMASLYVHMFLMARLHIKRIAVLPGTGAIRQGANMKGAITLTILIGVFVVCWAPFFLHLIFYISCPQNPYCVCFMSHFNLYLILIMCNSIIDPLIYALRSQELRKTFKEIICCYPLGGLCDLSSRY
Method: The general procedures described above were used to prepare the examples described below. Reported HPLC retention time are for reverse-phase HPLC (Agilent, 1200 series) using the conditions reported above (See “General” section). Mass spectra were recorded on a 6210 G1969A LC/MSD TOF spectrometer from Agilent Technologies using the LC conditions reported above (See “General” section). IC50 values were obtained using the cAMP assay described below.
IC50 value is the half maximal concentration of the tested compound to inhibit half of the maximal response of the agonist NDP-α-MSH. It is a measurement of the antagonist compound potency.
Intracellular cyclic 3′-5′ adenosine monophosphate (cAMP) accumulation was measured using a competitive immunoassay based on HTRF (Homogeneous Time-Resolved Fluorescence) technology (cAMP dynamic-2, Cis-Bio).
HEK293T stable cell line expressing double-tagged WT-hMC4R construct were collected and washed in cAMP buffer (1×D-PBS pH 7.4, 0.1% glucose). 40,000 cells/well were then dispensed in 96-well plates in cAMP buffer [1×D-PBS, 1% BSA, 0.1% Glucose, 0.75 mM 3-isobutyl-1-methyl-xanthine (IBMX, Sigma)] and incubated either for antagonist competition assay: 1 hour at 37° C. with various concentrations of compound [0.01 nM-10 μM] followed by 30 min incubation at 37° C. with 4 nM of NDP-α-MSH (Sigma) or for agonist assay: 1 hour at 37° C. with various concentrations of compound [0.01 nM-10 μM]. 10,000 cells were transferred in 384-well plates, lysed and incubated with cAMP labeled with the dye d2 and anti-cAMP M-Antidody labeled with Cryptate following the manufacturer's protocol.
Reading of HTRF signal was performed on Artemis TR-FRET plate reader (Cosmo Bio).
All curve fitting was conducted using non-linear regression analyses from PRISM (version 4.0c, GraphPad Inc.) and the determination of Rmax and EC50 or IC50 parameters were obtained from sigmoidal dose-response phase (variable slope) equation.
A cDNA encoding a wild-type human MC4R with a 3 tandem copies of Hemaglutinine (HA) epitote sequence from UMR cDNA resource center was modified using known techniques in the art (e.g., PCR, cloning) to fused in frame at the C-terminal a venus-Yellow Fluorescent Protein (YFP) cDNA.
The resultant cDNA was then subcloned in eukaryotic expression vector, e.g. pcDNA 3.1(+) (Invitrogen).
The double tagged WT-hMC4R was transfected in HEK293T cells with lipofectamine (Invitrogen) following the manufacturer's instructions and permanently transfected clonal cell lines were selected by resistance to the neomycin analog G418.
HEK293T stable cell line expressing wild-type human melanocortin 4 receptor (WT-hMC4R) containing an N-terminal 3×HA epitope tag and an intracellular C-terminal venus-yellow fluorescent protein (v-YFP) were maintained at 37° C. in humidified air containing 5% CO2 in Dulbecoo's modified Eagle's medium (DMEM) supplemented with 10% fetal bovine serum (FBS), 100 U/ml penicillin/streptomycin (DMEM complete/10% FBS). Cells were generally at 70%-80% confluence on the day of assay.

SMILES | IC50 [nM]
CCCCN(CCCC)C(=O)c1ccc2nc(Nc3ccc(OC)cc3)n(CCCN3CCCCC3)c2n1 [Cpd 1] | < 100
COc1ccc(Nc2nc3ccc(C(=O)N4CC(C)CC(C)C4)nc3n2CCCN2CCCCC2)cc1 (stereo not shown) [Cpd 2, (3,5-dimethylpiperidin-1-yl)(2-((4-methoxyphenyl)amino)-3-(3-(piperidin-1-yl)propyl)-3H-imidazo[4,5-b]pyridin-5-yl)methanone] | 1000 to 15000
CCCCN(CCCC)C(=O)c1ccc2nc(C)n(CCCN3CCCCC3)c2n1 [Cpd 3, N,N-dibutyl-2-methyl-3-(3-(piperidin-1-yl)propyl)-3H-imidazo[4,5-b]pyridine-5-carboxamide] | 1000 to 15000
CCCCN(CCCC)C(=O)c1ccc2nc(-c3cccc(C#N)c3)n(CCCN3CCCCC3)c2n1 [Cpd 4, N,N-dibutyl-2-(3-cyanophenyl)-3-(3-(piperidin-1-yl)propyl)-3H-imidazo[4,5-b]pyridine-5-carboxamide] | 1000 to 15000
CCCCN(CCCC)C(=O)c1ccc2nc(-c3csc4ccccc34)n(CCCN3CCCCC3)c2n1 [Cpd 5, 2-(benzo[b]thiophen-3-yl)-N,N-dibutyl-3-(3-(piperidin-1-yl)propyl)-3H-imidazo[4,5-b]pyridine-5-carboxamide] | 100 to 1000
COc1ccc(Nc2nc3ccc(-c4cc5ccccc5n4C(=O)OC(C)(C)C)nc3n2CCCN2CCCCC2)cc1 [Cpd 6, tert-butyl 2-(2-((4-methoxyphenyl)amino)-3-(3-(piperidin-1-yl)propyl)-3H-imidazo[4,5-b]pyridin-5-yl)-1H-indole-1-carboxylate] | 1000 to 15000
CCN(CCOC)C(=O)c1ccc2nc(Nc3ccc(OC)cc3)n(CCCN3CCCCC3)c2n1 [Cpd 7] | 1000 to 15000
CCCCN(CCCC)C(=O)c1ccc2nc(Nc3ccccc3)n(CCCN3CCCCC3)c2n1 [Cpd 8] | < 100
CCCCN(CCCC)C(=O)c1ccc2nc(NC(=O)c3ccccc3)n(CCCN3CCCCC3)c2n1 [Cpd 9] | 1000 to 15000
CCCCN(CCCC)C(=O)c1ccc2nc(NCc3ccccc3)n(CCCN3CCCCC3)c2n1 [Cpd 10] | 100 to 1000
CCCCN(CCCC)C(=O)c1ccc2nc(Nc3ccccc3Br)n(CCCN3CCCCC3)c2n1 [Cpd 11] | 1000 to 15000
COc1ccc(Nc2nc3ccc(C(=O)N(CC(C)C)CC(C)C)nc3n2CCCN2CCCCC2)cc1 [Cpd 12] | 100 to 1000
CCCN(CCC)C(=O)c1ccc2nc(Nc3ccc(OC)cc3)n(CCCN3CCCCC3)c2n1 [Cpd 13] | 100 to 1000
CCCCCN(CCCCC)C(=O)c1ccc2nc(Nc3ccc(OC)cc3)n(CCCN3CCCCC3)c2n1 [Cpd 14] | < 100
CCC(C)N(C(=O)c1ccc2nc(Nc3ccc(OC)cc3)n(CCCN3CCCCC3)c2n1)C(C)CC (stereo not shown) [Cpd 15] | 100 to 1000
COc1ccc(Nc2nc3ccc(C(=O)N(CCC(C)C)CCC(C)C)nc3n2CCCN2CCCCC2)cc1 [Cpd 16] | < 100

SMILES | IC50 [nM]
COCCN(CCOC)C(=O)c1ccc2nc(Nc3ccc(OC)cc3)n(CCCN3CCCCC3)c2n1 [Cpd 17] | 1000 to 15000
CCCCN(CCCC)C(=O)c1ccc2nc(Nc3ccc(OC)cc3)n(CCCN3CCCCC3C)c2n1 (stereo not shown) [Cpd 18] | < 100
COc1ccc(Nc2nc3ccc(C(=O)N4CC5CCC(CC5)C4)nc3n2CCCN2CCCCC2)cc1 [Cpd 19] | 1000 to 15000
CCCCN(CC#N)C(=O)c1ccc2nc(Nc3ccc(OC)cc3)n(CCCN3CCCCC3)c2n1 [Cpd 20] | 1000 to 15000
COc1ccc(Nc2nc3ccc(C(=O)N4CCCCCC4)nc3n2CCCN2CCCCC2)cc1 [Cpd 21] | 1000 to 15000
CCC1CCC(C)N(C(=O)c2ccc3nc(Nc4ccc(OC)cc4)n(CCCN4CCCCC4)c3n2)C1 (stereo not shown) [Cpd 22] | 1000 to 15000
COc1ccc(Nc2nc3ccc(C(=O)N4CCCC5CCCCC54)nc3n2CCCN2CCCCC2)cc1 (stereo not shown) [Cpd 23] | 1000 to 15000
CCCCN(CCC)C(=O)c1ccc2nc(Nc3ccc(OC)cc3)n(CCCN3CCCCC3)c2n1 [Cpd 24] | 100 to 1000
CCCN(C(=O)c1ccc2nc(Nc3ccc(OC)cc3)n(CCCN3CCCCC3)c2n1)C(C)CC (stereo not shown) [Cpd 25] | 100 to 1000
CCCCN(CCCC)C(=O)c1ccc2nc(Nc3ccc(OC)cc3)n(C3CCN(Cc4ccccc4)CC3)c2n1 [Cpd 26] | 1000 to 15000
COc1ccc(Nc2nc3ccc(C(=O)N(CCC(C)C)CCC(C)C)nc3n2C2CCN(Cc3ccccc3)CC2)cc1 [Cpd 27] | 1000 to 15000
CCCCN(CCCC)Cc1ccc2nc(Nc3ccc(OC)cc3)n(CCCN3CCCCC3C)c2n1 (stereo not shown) [Cpd 28] | 1000 to 15000
CCCCN(CCCC)C(=O)c1ccc2nc(Nc3ccc(OC)cc3)n(CC(C)(C)CN(C)C)c2n1 [Cpd 29] | 1000 to 15000
COc1ccc(Nc2nc3ccc(C(=O)N(CCC4CC4)CCC4CC4)nc3n2CCCN2CCCCC2)cc1 [Cpd 30] | < 100
CCCCN(CCCC)C(=O)c1cc2c(cn1)nc(Nc1ccc(OC)cc1)n2CCCN1CCCCC1 [Cpd 31] | 100 to 1000
CCCCN(CCCC)C(=O)c1ccc2nc(Nc3ccc(C(C)=O)cc3)n(CCCN3CCCCC3)c2n1 [Cpd 32] | < 100

More lines, now with the values ahead:

IC50 [nM] | SMILES
100 to 1000 | CCCCN(CCCC)C(=O)c1ccc2nc(Nc3ccc(CC)cc3)n(CCCN3CCCCC3)c2n1 [Cpd 33]
1000 to 15000 | CCCCN(CCCC)C(=O)c1ccc2nc(NC(C)C)n(CCCN3CCCCC3)c2n1 [Cpd 34]
< 100 | CCCCN(CCCC)C(=O)c1ccc2nc(Nc3cccnc3)n(CCCN3CCCCC3)c2n1 [Cpd 35]
< 100 | CCCCCN(CCCCC)C(=O)c1cc2c(cn1)nc(Nc1ccc(OC)cc1)n2CCCN1CCCCC1 [Cpd 36]
< 100 | COc1ccc(Nc2nc3cnc(C(=O)N(CCC(C)C)CCC(C)C)cc3n2CCCN2CCCCC2)cc1 [Cpd 37]
1000 to 15000 | CCCCN(CCCC)C(=O)c1cnc2nc(Nc3ccc(OC)cc3)n(CCCN3CCCCC3)c2c1 [Cpd 38]
1000 to 15000 | CCCCN(CCCC)C(=O)c1ccc2nc(NC(=O)OCC)n(CCCN3CCCCC3)c2n1 [Cpd 39]
1000 to 15000 | CCCCN(CCCC)C(=O)c1ccc2nc(N)n(CCCN3CCCCC3)c2n1 [Cpd 40]
1000 to 15000 | C=C(C)CNc1nc2ccc(C(=O)N(CCCC)CCCC)nc2n1CCCN1CCCCC1 [Cpd 41]
1000 to 15000 | CCCCN(CCCC)C(=O)c1ccc2nc(-c3cc(F)ccc3Br)n(CCCN3CCCCC3)c2n1 [Cpd 42]
1000 to 15000 | CCCCN(CCCC)C(=O)c1ccc2nc(-c3ccc(Br)cc3)n(CCCN3CCCCC3)c2n1 [Cpd 43]
100 to 1000 | CCCCN(CCCC)C(=O)c1ccc2nc(-c3cc(Br)ccc3OC)n(CCCN3CCCCC3)c2n1 [Cpd 44]
100 to 1000 | CCCCN(CCCC)C(=O)c1ccc2nc(Nc3cccc4ccccc34)n(CCCN3CCCCC3)c2n1 [Cpd 45]
< 100 | CCCCN(CCCC)C(=O)c1ccc2nc(Nc3ccc(C)cc3)n(CCCN3CCCCC3)c2n1 [Cpd 46]
100 to 1000 | CCCCN(CCCC)C(=O)c1nc(O)c2nc(-c3ccc(OC)cc3)n(CCCN3CCCCC3)c2n1 [Cpd 47]
< 100 | CCCCN(CCCC)C(=O)c1ccc2nc(Nc3ccc(C(=O)OC)cc3)n(CCCN3CCCCC3)c2n1 [Cpd 48]
100 to 1000 | CCCCN(CCCC)C(=O)c1ccc2nc(NC3CCCCC3)n(CCCN3CCCCC3)c2n1 [Cpd 49]
100 to 1000 | CCCCN(CCCC)C(=O)c1cnc2nc(Nc3ccc(OC)cc3)n(CCCN3CCCCC3)c2n1 [Cpd 50]
100 to 1000 | CCCCN(CCCC)C(=O)c1cc2c(cn1)nc(Nc1ccccc1)n2CCCN1CCCCC1 [Cpd 51]
< 100 | CCCCN(CCCC)C(=O)c1cc2c(cn1)nc(NCc1ccccc1)n2CCCN1CCCCC1 [Cpd 52]
100 to 1000 | CCCCN(CCCC)C(=O)c1cc2c(cn1)nc(Nc1ccc(C)cc1)n2CCCN1CCCCC1 [Cpd 53]
100 to 1000 | COc1ccc(-c2nc3cnc(C(=O)N(CCC(C)C)CCC(C)C)nc3n2CCCN2CCCCC2)cc1 [Cpd 54]
100 to 1000 | CCCCN(CCCC)C(=O)c1ccc(Nc2nc3ccc(C(=O)N(CCCC)CCCC)nc3n2CCCN2CCCCC2)cc1 [Cpd 55]
100 to 1000 | CCCCN(CCCC)C(=O)c1ccc2nc(Nc3ccc(C(=O)N(C)C)cc3)n(CCCN3CCCCC3)c2n1 [Cpd 56]
100 to 1000 | CCCCN(CCCC)C(=O)c1ccc2nc(Nc3ccc(C(=O)N4CCCCC4)cc3)n(CCCN3CCCCC3)c2n1 [Cpd 57]
100 to 1000 | CCCCN(CCCC)C(=O)c1ccc2nc(Nc3ccc(C(=O)N4CCN(C)CC4)cc3)n(CCCN3CCCCC3)c2n1 [Cpd 58]
